Where “and” joins values, the source holds several entries; their conditions need not be identical. Equal entries are not always repeated. Structures can show the parent of a compound that is named as a salt. Each block holds one compound with its values, some of them ahead of it.
What was measured:
kidney membrane fraction [1] = assay: Effect of sugars on inhibition of specific binding between ^3H-Glc-S-C8 and kidney membrane fraction (Test 8); details: ^3H-Glc-S-C8 20 pmol/ml, kidney membrane fraction 1 mg protein/ml
Protocol: In order to estimate structural requirement for recognition in the kidney, an experiment was carried out on the effect of various sugars and sugar derivatives on the inhibition of specific -binding between ^3H-Glc-S-C8 (20 pmol/ml) and the kidney membrane fraction (1 mg protein/ml).

[2] = Distribution of sugar-modified AVP in organs (Test 1); type: in vivo, male SD rats; details: rats, i.v. 1 nmol/kg, 5 min after administration; concentration in organs and organ clearance as index (Figs. 1 and 2)
Protocol: (§1) The organ clearance was determined by the following equation.
The organ clearance under the above experimental conditions is considered as a measure of the speed at which the compound is incorporated into the organs. The kidney is an organ which functions to perform glomerular filtration for the production of urine. The renal clearance of low-molecular weight compounds, which are likely to undergo glomerular filtration, is generally larger than the clearance for other organs. Further, under the above experimental conditions, it was estimated from the results on ^14C-labeled inulin that the incorporation of about 0.6 ml/min/g was carried out by glomerular filtration. Larger values indicate the incorporation of drugs into the kidney through blood vessels in addition to the glomerular filtration.

kidney membrane fraction [3] = assay: Effect of glycolipid derivatives on inhibition of specific binding between ^3H-Glc-S-C8 and kidney membrane fraction (Test 9); details: specific binding of ^3H-Glc-S-C8 to kidney membrane fraction, same manner as Test 4
Protocol: A membrane fraction was prepared by the method of Stassen F.L. et al. (J. Pharm. Exp. Thera., 223, 50-54, 1982). An experiment on binding was carried out as follows. The membrane fraction prepared above, together with the ^3H-labeled derivative, was incubated in physiological phosphate buffer on ice, followed by ultracentrifugation. The bound product obtained as the sediment by the ultracentrifugation was counted. […]
Commercially available or synthesized glycolipid derivatives were subjected to an binding inhibition experiment in the same manner as in Test 4.

kidney membrane fraction [4] = assay: Inhibition of binding of ^3H-Glc-O-C8-AVP to kidney membrane fraction (Test 4); details: ^3H-Glc-O-C8-AVP 20 pmol/ml, kidney membrane fraction 1 mg/ml, on ice 10 min
Protocol: A membrane fraction was prepared by the method of Stassen F.L. et al. (J. Pharm. Exp. Thera., 223, 50-54, 1982). An experiment on binding was carried out as follows. The membrane fraction prepared above, together with the ^3H-labeled derivative, was incubated in physiological phosphate buffer on ice, followed by ultracentrifugation. The bound product obtained as the sediment by the ultracentrifugation was counted.
The inhibitory activity of segmental structures of Glc-O-C8-AVP and the like against binding ^3H-Glc-O-C8-AVP (20 pmol/ml) to the kidney membrane fraction (1 mg/ml) (incubation on ice for 10 min) was studied.

[5] = Renal selectivity (organ distribution) of thioglucoside-modified products (Test 6); type: in vivo; details: rats; for Conc. in kidney / Renal clearance: ^3H-labeled product, same manner as Test 1 (i.v. 1 nmol/kg, 5 min); for renal selectivity: comparison between AVP derivatives
Protocol: as §1

[6] = Pharmacokinetic test of monkey (Glc-S-C8-CONH-C2-NBD) (Test 10 (2)); type: in vivo; details: monkeys, i.v. 10 nmol/kg, 5 min; n = 2, average
Protocol: In order to investigate the difference in activity of the compounds according to the present invention between animal species, the pharmacokinetic test using monkeys was carried out as follows. […] The monkeys of group A were injected with Glc-S-C8-CONH-C2-NBD, while, for comparison, the monkeys of group B were injected with 4-(2-hydroxyethyl)amino-7-nitrobenz-2-oxa-1,3-diazole (synthesis intermediate prepared in Example 44; hereinafter referred to as "HO-C2-NBD").
Five min after the administration, the monkeys were bled to death; and, immediately after that, each organ was extracted. According to the conventional method, the organs were homogenized and deprotenized. Thereafter, the samples were subjected to separation by reversed phase liquid chromatography. Glc-S-C8-CONH-C2-NBD and HO-C2-NBD were detected and quantitatively determined by fluorescence detector.

Inhibition (%) (kidney membrane fraction [1]; sample 20 mM): 98.9%
Inhibition (%) (kidney membrane fraction [1]; sample 100 mM): 99.6%
Compound: OC[C@H]1NC[C@H](O)[C@@H](O)[C@@H]1O [1-Deoxynojirimycin]

Inhibition (%) (kidney membrane fraction [1]; sample 20 mM): 29.2%
Inhibition (%) (kidney membrane fraction [1]; sample 100 mM): 58.3%
Compound: O=CC[C@@H](O)[C@H](O)[C@H](O)CO [2-Deoxyglucose]

Inhibition (%) (kidney membrane fraction [1]; sample 20 mM): 37.8%
Inhibition (%) (kidney membrane fraction [1]; sample 100 mM): 67.9%
Compound: O=C[C@H](F)[C@@H](O)[C@H](O)[C@H](O)CO [2-Fluoro-2-deoxyglucose]

renal selectivity [2]: high renal selectivity
Compound: N=C(N)NCCC[C@H](NC(=O)[C@@H]1CCCN1C(=O)[C@@H]1CSSC[C@H](NC(=O)CCCCCCCCO[C@H]2C[C@@H](O)[C@H](O)[C@@H](CO)O2)C(=O)N[C@@H](Cc2ccc(O)cc2)C(=O)N[C@@H](Cc2ccccc2)C(=O)N[C@@H](CCC(N)=O)C(=O)N[C@@H](CC(N)=O)C(=O)N1)C(=O)NCC(N)=O [2dGlc-O-C8-AVP]

Inhibition (%) (kidney membrane fraction [1]; sample 20 mM): 9.7%
Inhibition (%) (kidney membrane fraction [1]; sample 100 mM): 18.7%
Compound: O=C[C@H](O)[C@@H](F)[C@H](O)[C@H](O)CO [3-Fluoro-3-deoxyglucose]

Inhibition (%) (kidney membrane fraction [1]; sample 20 mM): 70.2%
Inhibition (%) (kidney membrane fraction [1]; sample 100 mM): 83.9%
Compound: O=C[C@H](O)[C@@H](O)[C@H](F)[C@H](O)CO [4-Fluoro-4-deoxyglucose]

IC50 (kidney membrane fraction [3]): 4.7 µM
Compound: COC(=O)CCCCCCCCS[C@@H]1N[C@H](CO)[C@@H](O)[C@H](O)[C@H]1O [5N-Glc-S-C8-COOMe, 8-methoxycarbonyloctyl 5-amino-5-deoxy-1-thio-β-D-glucopyranoside hydrochloride]

IC50 (kidney membrane fraction [3]): 14 µM
Compound: COC(=O)CCCCCCCCS[C@@H]1S[C@H](CO)[C@@H](O)[C@H](O)[C@H]1O [5S-Glc-S-C8-COOMe, 8-methoxycarbonyloctyl 5-deoxy-1,5-dithio-β-D-glucopyranoside]

Inhibition (%) (kidney membrane fraction [1]; sample 20 mM): 17.8%
Inhibition (%) (kidney membrane fraction [1]; sample 100 mM): 32.5%
Compound: O=C[C@H](O)[C@@H](O)[C@H](O)[C@H](O)CF [6-Fluoro-6-deoxyglucose]

IC50 (kidney membrane fraction [3]): 1.1 µM
Compound: CCCCCCCCS[C@@H]1O[C@H](CO)[C@@H](O)[C@@H](O)[C@H]1O [All-S-C8, Octyl 1-thio-β-D-allopyranoside]

IC50 (kidney membrane fraction [3]): 0.071 µM
Compound: CCCCCCCCS[C@H]1C[C@@H](O)[C@H](O)[C@@H](CO)O1 [Example 2d-Glc-S-C8, Octyl 2-deoxy-1-thio-β-D-glucopyranoside]

IC50 (kidney membrane fraction [3]): 55 µM
Compound: CCCCCCCCS[C@@H]1O[C@H](CO)C[C@H](O)[C@H]1O [Example 4d-Glc-S-C8, n-octyl 4-deoxy-1-thio-β-D-glucopyranoside]

IC50 (kidney membrane fraction [4]): 120 µM
IC50 (kidney membrane fraction [3]): 37 µM
Compound: CCCCCCCCS[C@@H]1O[C@H](CO)[C@H](O)[C@H](O)[C@H]1O [Gal-S-C8, Octyl 1-thio-β-D-galactopyranoside]

Inhibition (%) (kidney membrane fraction [1]; sample 20 mM): 2.5%
Inhibition (%) (kidney membrane fraction [1]; sample 100 mM): 18.9%
Compound: O=C[C@H](O)[C@@H](O)[C@@H](O)[C@H](O)CO [Galactose]

IC50 (kidney membrane fraction [4]): > 2000 µM
Inhibition (%) (kidney membrane fraction [1]; sample 20 mM): 16.7%
Inhibition (%) (kidney membrane fraction [1]; sample 100 mM): 38.4%
Compound: OC[C@H]1OC(O)[C@H](O)[C@@H](O)[C@@H]1O (stereo partly drawn) [Glc, glucopyranose]

IC50 (kidney membrane fraction [3]): 0.11 µM
Compound: COC(=O)CCCCCCCN[C@@H]1O[C@H](CO)[C@@H](O)[C@H](O)[C@H]1O [Glc-NH-C7-COOMe, N-(7-methoxycarbonyl)heptyl-β-D-glucopyranosylamine]

IC50 (kidney membrane fraction [4]): 5.9 µM
Compound: CCCCCCO[C@@H]1O[C@H](CO)[C@@H](O)[C@H](O)[C@H]1O [Glc-O-C6, Hexyl β-D-glucopyranoside]

IC50 (kidney membrane fraction [4]): 2.9 µM
IC50 (kidney membrane fraction [3]): 4.6 µM
Compound: CCCCCCCCO[C@@H]1O[C@H](CO)[C@@H](O)[C@H](O)[C@H]1O [Glc-O-C8, Octyl β-D-glucopyranoside]

IC50 (kidney membrane fraction [3]): 33 µM
Compound: COC(=O)CCCCCCCCO[C@@H]1O[C@H](CO)[C@@H](O)[C@H](O)[C@H]1O [Glc-O-C8-COOMe, 8-methoxycarbonyloctylβ-D-glucopyranoside]

IC50 (kidney membrane fraction [4]): > 2000 µM
Compound: CO[C@@H]1O[C@H](CO)[C@@H](O)[C@H](O)[C@H]1O [Glc-O-CH3, Methyl β-D-glucopyranoside]

IC50 (kidney membrane fraction [4]): 0.065 µM
IC50 (kidney membrane fraction [3]): 0.078 µM
Compound: CCCCCCCCS[C@@H]1O[C@H](CO)[C@@H](O)[C@H](O)[C@H]1O [Glc-S-C8, Octyl 1-thio-β-D-glucopyranoside]

Conc. in kidney [5]: 29.2±0.9 % of dose/g
Renal clearance [5]: 3.42 mL/min/g and 3.42 ± 0.05 mL/min/g
Compound: N=C(N)NCCC[C@H](NC(=O)[C@@H]1CCCN1C(=O)[C@@H]1CSSC[C@H](NC(=O)CCCCCCCCS[C@@H]2O[C@H](CO)[C@@H](O)[C@H](O)[C@H]2O)C(=O)N[C@@H](Cc2ccc(O)cc2)C(=O)N[C@@H](Cc2ccccc2)C(=O)N[C@@H](CCC(N)=O)C(=O)N[C@@H](CC(N)=O)C(=O)N1)C(=O)NCC(N)=O [Glc-S-C8-AVP]
renal selectivity [5]: higher renal selectivity than Glc-O-C8-AVP

Compound: O=C(CCCCCCCCS[C@@H]1O[C@H](CO)[C@@H](O)[C@H](O)[C@H]1O)NCCNc1ccc([N+](=O)[O-])c2nonc12 [Glc-S-C8-CONH-C2-NBD]
concentration of administered compound: Adrenal [6]: 1.87 pmol/mol or g tissue
concentration of administered compound: Blood [6]: 10.72 pmol/mol or g tissue
concentration of administered compound: Heart [6]: 3.23 pmol/mol or g tissue
concentration of administered compound: Kidney [6]: 280.32 pmol/mol or g tissue
concentration of administered compound: Liver [6]: 13.85 pmol/mol or g tissue
concentration of administered compound: Lung [6]: 6.90 pmol/mol or g tissue
concentration of administered compound: Plasma [6]: 16.42 pmol/mol or g tissue
concentration of administered compound: Spleen [6]: 0.55 pmol/mol or g tissue

IC50 (kidney membrane fraction [3]): 0.59 µM
Compound: COC(=O)CCCCCCCCS[C@@H]1O[C@H](CO)[C@@H](O)[C@H](O)[C@H]1O [Glc-S-C8-COOMe, 8-methoxycarbonyloctyll-thio-β-D-glucopyranoside]

Conc. in kidney [5]: 40.2±1.5 % of dose/g
Renal clearance [5]: 4.47 ± 0.33 mL/min/g
Compound: N=C(N)NCCC[C@H](NC(=O)[C@@H]1CCCN1C(=O)[C@@H]1CSSC[C@H](NC(=O)CCCCCCCCCCCS[C@@H]2O[C@H](CO)[C@@H](O)[C@H](O)[C@H]2O)C(=O)N[C@@H](Cc2ccc(O)cc2)C(=O)N[C@@H](Cc2ccccc2)C(=O)N[C@@H](CCC(N)=O)C(=O)N[C@@H](CC(N)=O)C(=O)N1)C(=O)NCC(N)=O [Glc-S-C11-AVP]
renal selectivity [5]: higher renal selectivity than Glc-S-C8-AVP

IC50 (kidney membrane fraction [3]): 1 µM
Compound: CC(C)(C)CC(C)(C)S[C@@H]1O[C@H](CO)[C@@H](O)[C@H](O)[C@H]1O [Glc-S-C(CH3)2-CH2-C(CH3)3, t-Octyl 1-thio-β-D-glucopyranoside]

IC50 (kidney membrane fraction [3]): 1.5 µM
Compound: CCCCC(CCCC)S[C@@H]1O[C@H](CO)[C@@H](O)[C@H](O)[C@H]1O [Glc-S-CH(C4H9)2, 5-(1-Thio-β-D-glucopyranosyl)nonan]

IC50 (kidney membrane fraction [3]): 0.23 µM
Compound: O=[N+]([O-])c1ccc(S[C@@H]2O[C@H](CO)[C@@H](O)[C@H](O)[C@H]2O)cc1 [Glc-S-pNP, p-Nitrophenyl 1-thio-β-D-glucopyranoside]

Compound: O=[N+]([O-])c1ccc(NCCO)c2nonc12 [HO-C2-NBD, 4-(2-hydroxyethyl)amino-7-nitrobenz-2-oxa-1,3-diazole, reference compound]
concentration of administered compound: Adrenal [6]: 2.05 pmol/mol or g tissue
concentration of administered compound: Blood [6]: 7.53 pmol/mol or g tissue
concentration of administered compound: Heart [6]: 10.92 pmol/mol or g tissue
concentration of administered compound: Kidney [6]: 2.33 pmol/mol or g tissue
concentration of administered compound: Lung [6]: 17.33 pmol/mol or g tissue
concentration of administered compound: Plasma [6]: 7.51 pmol/mol or g tissue
concentration of administered compound: Spleen [6]: 2.35 pmol/mol or g tissue

IC50 (kidney membrane fraction [3]): 0.2 µM
Compound: CCCCCCCCS[C@@H]1O[C@H](CO)[C@@H](O)[C@H](O)[C@@H]1O [Man-S-C8, Octyl 1-thio-β-D-mannopyranoside]

IC50 (kidney membrane fraction [3]): 1.5 µM
Compound: CCCCCCCCS[C@@H]1OC[C@@H](O)[C@H](O)[C@H]1O [Xyl-S-C8, Octyl 1-thio-β-D-xylopyranoside]

Compound: arginine vasopressin [AVP, reference compound]
Conc. in kidney [5]: 5.3±0.7 % of dose/g
Renal clearance [5]: 0.49 ± 0.04 mL/min/g
IC50 (kidney membrane fraction [4]): 150 µM
